These results are taken from patent publication US4898870A, “Pyrroloquinoline quinone compounds useful as an enzyme inhibitor” (Sogo Pharmaceutical Company Limited, priority 1986, dated 1990).

One series can be described thus: Acute toxicity test, rat. To be noted: in vivo. From the text: (§1) Generally, pyrroloquinoline quinone (hereinafter referred to as PQQ) is a novel coenzyme different from conventional coenzyme NAD(P) or flavins for oxydation-reduction and it was initially found as a coenzyme for glucose dehydrogenase of Acinetobactor group. PQQ has a concern with the oxidizing reaction of alcohols, aldehydes, glucose and amines in an organism. Further, its growth promoting effect to a certain kind of micro-organisms,animal cells, plant cells has also been reported. Further, PQQ is also presented in the blood of mammal and, while its vitamin-like physiological activity is guessed, its biological roles has not yet been known at present. However, PQQ and its derivatives constitute the ingredients of an organism and considered to be a stable and non-toxic substance. This is apparent from the result of the acute toxicity test to mouse and rat described later.
(§2) Acute toxicity test of PQQ tri(dimethylamide)

The nature of series [1]: Acute toxicity test, mouse. To be noted: in vivo.
Description: as §1, §2

Series [2] deals with T1, human placental aldose reductase (Homo sapiens, UniProt P15121).
T1 construct: An enzyme solution was prepared from human placenta; from tissue; host or cells: human placenta
Nature of the series: Inhibition of human placental aldose reductase. The settings on record: human placenta enzyme. The format is biochemical. Here is the method: (§3) Specifically reaction was started by adding dl-glyceraldehyde as a substrate to a reaction solution containing rat lens homogenate, Li2 SO4, NADPH2 and inhibitor, and the enzyme activity was measured by the decrease of the optical absorption of NADPH2 (optical density: OD) at 340 nm for 5 min. The solution with no addition of the substrate was used for the blank OD. The inhibiting ratio for the aldose reductase reaction by the inhibitor was determined by the following equation: [formula]
The determination of enzyme activity was same as in Test Example 1 except enzyme source was human placenta.
(§4) To a reaction solution containing the chick lens homogenate, Li2 SO4, NADPH2 and an inhibitor, was added dlglyceraldehyde as substrate to start the reaction, and the enzymatic activity was determined by measuring the decrease in optical density (OD) of NADPH2 at 340 nm after five minutes. A solution with no substrate added was used for the blank test. The inhibition rate against the aldose reductase reaction was calculated from the following equation: [formula]
An enzyme solution was prepared from human placenta, and the inhibitory action of PQQ·2K against human placental aldose reductase was measured in the same way as in Test Example 4.
An enzyme solution was prepared from human placenta, and the inhibitory action of PQQ·3Me against human placental aldose reductase was measured in the same way as in Test Example 4.
An enzyme solution was prepared from human placenta, and the inhibitory action of PQQ·2Me.Et against human placental aldose reductase was measured in the same way as in Test Example 4.

The target in series [3] is T2, bovine lens aldose reductase (Bos taurus, UniProt P16116).
T2 construct: A homogenate of bovine lens was centrifuged for ten minutes at 20,000 rpm under cooling; from tissue; host or cells: bovine lens (20,000 rpm supernatant of homogenate)
Nature of the series: Inhibition of bovine lens aldose reductase. The format is biochemical. Here is the method: as §3
The determination of enzyme activity was same as in Test Example 1 except enzyme source was bovine lens.
as §4
A homogenate of bovine lens was centrifuged for ten minutes at 20,000 rpm under cooling, the supernatant was collected as an enzyme solution, and the inhibitory action of PQQ against aldose reductase was measured in the same way as in Test Example 4.
A homogenate of bovine lens was centrifuged for ten minutes at 20,000 rpm under cooling, the supernatant was collected as an enzyme solution, and the inhibitory action of PQQ·H2 against bovine lens aldose reductase was measured in the same way as in Test Example 4.
An enzyme solution was prepared from chick lens in the same manner as in Test Example 9, and the inhibitory action of PQQ·3Me against bovine lens aldose reductase was measured in the same way as in Test Example 4.

For series [4], the system named is chick lens aldose reductase. Put plainly: Inhibition of chick lens aldose reductase. The format is biochemical. As for the experimental part:
The activity of aldose reductase was measured according to the method of Kinoshita et al. [Metabolism, 28, 462-469 (1979)] using a homogenate of chick lens.
as §4
An enzyme solution was prepared from chick lens in the same manner as in Test Example 4, and the inhibitory action of PQQ·H2 against aldose reductase was measured in the same way as in Test Example 4.
An enzyme solution was prepared from chick lens in the same manner as in Test Example 4, and the inhibitory action of PQQ·3Me against aldose reductase was measured in the same way as in Test Example 4.

The subject of series [5] is egg cataract induced by hydrocortisone. Put plainly: Egg cataract induced by hydrocortisone. The format is in vivo, White-leghorn eggs. As for the experimental part:
White-leghorn eggs were incubated in a hatcher held at a temperature of 37° C. and a relative humidity of about 70%.
To the control and drug-administered groups, was administered at the air space 0.2 ml each of a solution of 0.12 mg hydrocortisone succinate (HC) in pure water on the 15th day after the start of incubation.
To the drug-administered group, was further injected PQQ 2 hours, or 2 and 5 hours, after HC administration.
The lens was extracted from each egg 48 hours after HC administration, and cataract estimation was made by the method of Nishigohri et al. [INVESTIGATIVE OPHTHALMOLOGY & VISUAL SCIENCE, 25, 1051 (1984)] according to the following standards: […]

Series [6] relates to galactose-induced cataract. Nature of the series: Galactose-induced cataract in rats. The format is in vivo, Sprague-Dawley rats. To be noted: for cataract estimation: number at Grade A^- / cataract estimation: number at Grade A^0: 50% galactose feed; for cataract estimation: number at Grade A^-: 7th day; for cataract estimation: number at Grade A^0: 10th day. As for the experimental part: Male, Sprague-Dawley rats weighing 55 to 65 grams were used as test animals in this experiment. These were divided into three groups (normal group, 50%-galactose feed group, and drug-administered group). The normal group was given a commercial powdery feed (CE-2 of Clea Japan Inc.), and the other two groups were given the above normal feed further containing 50% galactose, with free access thereto in all cases. To the drug-administered group, was further administered PQQ orally (30 mg/Kg) or intraperitonealy (20 mg/Kg) once a day throughout the course of test. The lens was extracted from the test animals on the 7th and 10th days after the start of experiment, and cataract estimation was made according to the following standards: […]

Where [7] appears, read: PQQ 0.25 mg/egg × 1, HC 0.12 mg/egg, 48 hours after HC.
[8] abbreviates: PQQ 0.5 mg/egg × 1, HC 0.12 mg/egg, 48 hours after HC.
[9] abbreviates: PQQ 0.5 mg/egg × 2, HC 0.12 mg/egg, 48 hours after HC.
Setting [10] is: PQQ 1.0 mg/egg × 1, HC 0.12 mg/egg, 48 hours after HC.

The LD50 is the dose expected to kill half of the subjects tested. High values mean lower toxicity, low ones greater toxicity. For orientation: inhibition means the drop in the measured response relative to a control, in per cent.

Regarding `CN(C)C(=O)c1cc(C(=O)N(C)C)c2c(n1)C(=O)C(=O)c1cc(C(=O)N(C)C)[nH]c1-2` [PQQ tri(dimethylamide)], the LD50 in “Acute toxicity test, rat” (oral) was > 5000 mg/kg; in “Acute toxicity test, rat” (sc, subcutaneous) it was > 1500 mg/kg; in series [1] (oral) it was > 5000 mg/kg; in series [1] (sc, subcutaneous), > 1500 mg/kg. Besides, the IC50 in series [2] is 830 nM.

As to `O=C(O)c1cc(C(=O)O)c2c(n1)C(=O)C(=O)c1cc(C(=O)O)[nH]c1-2` [PQQ, pyrroloquinoline quinone], the IC50 in series [3] (bovine lens enzyme) came out at 300 nM; in series [4] (chick lens homogenate, read-out: concentration inhibiting the aldose reductase activity by 50%) it was 5000 nM. The IC100 in series [3] (bovine lens, read-out: concentration inhibiting the activity by 100%) turned out to be 1 µM. In addition, the inhibition at 10 µM in series [3] (inhibitor 10^-5 M/reaction soln., read-out: Inhibition Rate) worked out at 100%. Also, in series [3] (inhibitor 10^-6 M/reaction soln., read-out: Inhibition Rate), the inhibition at 1 µM was 100%. The inhibition at 0.1 µM in series [3] (inhibitor 10^-7 M/reaction soln., read-out: Inhibition Rate) was determined as 35.9%. Moreover, the inhibition at 0.01 µM in series [3] (inhibitor 10^-8 M/reaction soln., read-out: Inhibition Rate) amounted to 0%. Moreover, in series [4] (chick lens), the “concentration inhibiting the activity by 100%” value is listed as 10^-4 M. Moreover, the “Inhibition Rate” value in series [4] (inhibitor 10^-4 M/reaction soln.) was found to be 100%; in series [4] (inhibitor 10^-5 M/reaction soln.), 82.1%; in series [4] (inhibitor 10^-6 M/reaction soln.), 13.9%; in series [4] (inhibitor 10^-7 M/reaction soln.), 0%; in series [4] (inhibitor 10^-8 M/reaction soln.) it was 0%. In series [5] (HC 0.12 mg on 15th day of incubation), the “effect on hydrocortisone-induced egg cataract” value is recorded as “evidently showed an effect of curing cataract”. Further, the “cataract estimation: number at Grade I” value in series [5] (setting [7]) is 2/8; in series [5] (setting [8]) it was 2/10; in series [5] (setting [10]), 2/6. Besides, the “cataract estimation: number at Grade III” value is given as 4/8 in series [5] (setting [7]), 8/10 in series [5] (setting [8]), 2/10 in series [5] (setting [9]) and 2/6 in series [5] (setting [10]). Also, in series [5] (setting [7]), the “cataract estimation: number at Grade IV” value was 2/8. In addition, the “cataract estimation: number at Grade II” value is 8/10 in series [5] (setting [9]) and 2/6 in series [5] (setting [10]). For the same compound, the “cataract estimation: number at Grade A^-” value in series [6] (20 mg/Kg i.p. once a day) is listed as 4/4; in series [6] (30 mg/Kg p.o. once a day), 6/6. The “cataract estimation: number at Grade A^0” value in series [6] (20 mg/Kg i.p. once a day) is on record as 2/2; in series [6] (30 mg/Kg p.o. once a day), 4/4. In addition, the nebula formation entry in series [6] (50%-galactose feed for seven days, both p.o. and i.p.) is “no such nebula formation was observed at all”. Further, the “change of cataract grade versus 50%-galactose feed group” value in series [6] (50%-galactose feed over ten days) was “improvement by two grades”.
